# Assay results published in ChEMBL document CHEMBL2069199, “Development of isoform selective PI3-kinase inhibitors as pharmacological tools for elucidating the PI3K pathway” (Bioorg Med Chem Lett, 2012).
# Tests used:
# [1] = target: T1, Phosphatidylinositol 4,5-bisphosphate 3-kinase catalytic subunit alpha isoform (Homo sapiens, UniProt P42336); test: Inhibition of recombinant GST-tagged PI3K p110alpha using [32P]ATP after 60 mins by scintillation proximity assay
# [2] = target: T2, Phosphatidylinositol 4,5-bisphosphate 3-kinase catalytic subunit delta isoform (Homo sapiens, UniProt O00329); test: Inhibition of recombinant GST-tagged PI3K p110delta using [32P]ATP after 60 mins by scintillation proximity assay
# T2 sequence (O00329 whole entry): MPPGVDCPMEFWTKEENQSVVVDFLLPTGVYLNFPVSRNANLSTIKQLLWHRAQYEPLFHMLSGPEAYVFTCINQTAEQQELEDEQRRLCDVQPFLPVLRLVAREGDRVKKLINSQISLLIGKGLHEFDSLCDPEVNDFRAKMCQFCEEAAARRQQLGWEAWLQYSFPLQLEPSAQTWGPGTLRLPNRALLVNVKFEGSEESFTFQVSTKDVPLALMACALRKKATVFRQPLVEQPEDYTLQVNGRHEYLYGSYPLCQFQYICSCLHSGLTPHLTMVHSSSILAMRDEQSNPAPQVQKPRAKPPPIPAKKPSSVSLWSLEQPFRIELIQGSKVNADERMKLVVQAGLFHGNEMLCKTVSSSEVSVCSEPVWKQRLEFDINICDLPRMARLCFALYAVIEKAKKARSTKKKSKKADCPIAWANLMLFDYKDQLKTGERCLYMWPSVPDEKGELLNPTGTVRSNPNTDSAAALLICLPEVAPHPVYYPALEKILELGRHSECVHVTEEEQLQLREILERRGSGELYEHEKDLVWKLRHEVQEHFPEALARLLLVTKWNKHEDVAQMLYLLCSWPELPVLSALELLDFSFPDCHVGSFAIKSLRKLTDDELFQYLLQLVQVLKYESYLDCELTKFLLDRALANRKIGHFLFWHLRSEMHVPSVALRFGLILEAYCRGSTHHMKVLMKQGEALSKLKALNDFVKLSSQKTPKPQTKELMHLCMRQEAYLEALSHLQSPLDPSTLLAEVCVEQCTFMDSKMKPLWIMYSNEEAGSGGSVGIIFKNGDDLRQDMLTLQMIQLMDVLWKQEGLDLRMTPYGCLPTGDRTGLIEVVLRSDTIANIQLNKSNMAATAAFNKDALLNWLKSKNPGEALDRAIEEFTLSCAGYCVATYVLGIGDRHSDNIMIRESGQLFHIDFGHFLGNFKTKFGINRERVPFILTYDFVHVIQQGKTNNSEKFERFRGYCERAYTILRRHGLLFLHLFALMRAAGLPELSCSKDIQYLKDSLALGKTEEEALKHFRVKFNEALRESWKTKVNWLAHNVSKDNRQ
# [3] = target: T3, Phosphatidylinositol 4,5-bisphosphate 3-kinase catalytic subunit gamma isoform (Homo sapiens, UniProt P48736)
# Description: Inhibition of recombinant GST-tagged PI3K p110gamma using [32P]ATP after 60 mins by scintillation proximity assay
# [4] = target: T4, Phosphatidylinositol 4,5-bisphosphate 3-kinase catalytic subunit beta isoform (Homo sapiens, UniProt P42338); test: Inhibition of recombinant GST-tagged PI3K p110beta using [32P]ATP after 60 mins by scintillation proximity assay
# [5] = Antiinflammatory activity in human neutrophils assessed as inhibition of fMLP-induced oxidative burst; format: functional, cell-based; conditions: neutrophil
# [6] = target: T1, Phosphatidylinositol 4,5-bisphosphate 3-kinase catalytic subunit alpha isoform; test: Inhibition of recombinant GST-tagged PI3K p110alpha by KinaseGlo assay
# [7] = target: T4, Phosphatidylinositol 4,5-bisphosphate 3-kinase catalytic subunit beta isoform; test: Inhibition of recombinant GST-tagged PI3K p110beta by KinaseGlo assay
# [8] = target: T2, Phosphatidylinositol 4,5-bisphosphate 3-kinase catalytic subunit delta isoform; test: Inhibition of recombinant GST-tagged PI3K p110delta by KinaseGlo assay
# [9] = target: T3, Phosphatidylinositol 4,5-bisphosphate 3-kinase catalytic subunit gamma isoform; test: Inhibition of recombinant GST-tagged PI3K p110gamma by KinaseGlo assay
# [10] = AUC in Wistar rat at 5 mg/kg, po; format: ADME, organism-based; parameters: dose 5 mg/kg, route oral; conditions: plasma
# [11] = target: Phosphatidylinositol 4-kinase beta (Homo sapiens, UniProt Q9UBF8); test: Inhibition of PI4Kbeta
# [12] = Antiinflammatory activity in mouse B cells assessed as inhibition of mitogen-induced proliferation; format: functional, cell-based
# [13] = Clearance in Wistar rat at 5 mg/kg, po; format: ADME, organism-based; parameters: dose 5 mg/kg, route oral; conditions: in vivo
# [14] = target: Phosphatidylinositol 3-kinase catalytic subunit type 3 (Homo sapiens, UniProt Q8NEB9); test: Inhibition of Vps34
# [15] = Oral bioavailability in Wistar rat at 5 mg/kg; format: ADME, organism-based; conditions: in vivo
# [16] = target: DNA-dependent protein kinase catalytic subunit (Homo sapiens, UniProt P78527); test: Inhibition of DNA-PK
# [17] = Half life in Wistar rat at 5 mg/kg, po; format: ADME, organism-based; parameters: dose 5 mg/kg, route oral; conditions: in vivo
# [18] = target: Dual specificity protein kinase CLK1 (Homo sapiens, UniProt P49759); test: Inhibition of CLK1
# [19] = target: Dual specificity protein kinase CLK2 (Homo sapiens, UniProt P49760); test: Inhibition of CLK2
# [20] = Antiinflammatory activity in human B cells assessed as inhibition of mitogen-induced proliferation; format: functional, cell-based; conditions: B-cell
# [21] = system: Rattus norvegicus; test: Volume of distribution at steady state in Wistar rat at 5 mg/kg, po; format: ADME, organism-based; parameters: dose 5 mg/kg, route oral; conditions: in vivo
# [22] = target: Serine/threonine-protein kinase mTOR (Homo sapiens, UniProt P42345); test: Inhibition of mTOR
# [23] = Tmax in Wistar rat at 5 mg/kg, po; format: ADME, organism-based; parameters: dose 5 mg/kg, route oral; conditions: in vivo
# [24] = Cmax in Wistar rat at 5 mg/kg, po; format: ADME, organism-based; parameters: dose 5 mg/kg, route oral; conditions: in vivo
# [25] = system: Rattus norvegicus; test: Volume of distribution at steady state in Wistar rat at 10 mg/kg, po; format: ADME, organism-based; parameters: dose 10 mg/kg, route oral; conditions: in vivo
# [26] = Half life in Wistar rat at 10 mg/kg, po; format: ADME, organism-based; parameters: dose 10 mg/kg, route oral; conditions: in vivo
# [27] = Clearance in Wistar rat at 10 mg/kg, po; format: ADME, organism-based; parameters: dose 10 mg/kg, route oral; conditions: in vivo
# [28] = Tmax in Wistar rat at 10 mg/kg, po; format: ADME, organism-based; parameters: dose 10 mg/kg, route oral; conditions: in vivo
# [29] = Cmax in Wistar rat at 10 mg/kg, po; format: ADME, organism-based; parameters: dose 10 mg/kg, route oral; conditions: in vivo
# [30] = (§1) AUC in Wistar rat at 10 mg/kg, po; format: ADME, organism-based, Plasma; parameters: dose 10 mg/kg, route oral; conditions: Wistar, plasma
# [31] = Oral bioavailability in Wistar rat at 10 mg/kg; format: ADME, organism-based; conditions: in vivo
# [32] = Aqueous solubility of the compound at pH 6.8; format: physicochemical
# [33] = system: Rattus norvegicus; test: as §1; format: ADME, organism-based, Plasma; parameters: dose 10 mg/kg, route oral; conditions: in vivo
# T3 sequence (P48736 whole entry, canonical isoform): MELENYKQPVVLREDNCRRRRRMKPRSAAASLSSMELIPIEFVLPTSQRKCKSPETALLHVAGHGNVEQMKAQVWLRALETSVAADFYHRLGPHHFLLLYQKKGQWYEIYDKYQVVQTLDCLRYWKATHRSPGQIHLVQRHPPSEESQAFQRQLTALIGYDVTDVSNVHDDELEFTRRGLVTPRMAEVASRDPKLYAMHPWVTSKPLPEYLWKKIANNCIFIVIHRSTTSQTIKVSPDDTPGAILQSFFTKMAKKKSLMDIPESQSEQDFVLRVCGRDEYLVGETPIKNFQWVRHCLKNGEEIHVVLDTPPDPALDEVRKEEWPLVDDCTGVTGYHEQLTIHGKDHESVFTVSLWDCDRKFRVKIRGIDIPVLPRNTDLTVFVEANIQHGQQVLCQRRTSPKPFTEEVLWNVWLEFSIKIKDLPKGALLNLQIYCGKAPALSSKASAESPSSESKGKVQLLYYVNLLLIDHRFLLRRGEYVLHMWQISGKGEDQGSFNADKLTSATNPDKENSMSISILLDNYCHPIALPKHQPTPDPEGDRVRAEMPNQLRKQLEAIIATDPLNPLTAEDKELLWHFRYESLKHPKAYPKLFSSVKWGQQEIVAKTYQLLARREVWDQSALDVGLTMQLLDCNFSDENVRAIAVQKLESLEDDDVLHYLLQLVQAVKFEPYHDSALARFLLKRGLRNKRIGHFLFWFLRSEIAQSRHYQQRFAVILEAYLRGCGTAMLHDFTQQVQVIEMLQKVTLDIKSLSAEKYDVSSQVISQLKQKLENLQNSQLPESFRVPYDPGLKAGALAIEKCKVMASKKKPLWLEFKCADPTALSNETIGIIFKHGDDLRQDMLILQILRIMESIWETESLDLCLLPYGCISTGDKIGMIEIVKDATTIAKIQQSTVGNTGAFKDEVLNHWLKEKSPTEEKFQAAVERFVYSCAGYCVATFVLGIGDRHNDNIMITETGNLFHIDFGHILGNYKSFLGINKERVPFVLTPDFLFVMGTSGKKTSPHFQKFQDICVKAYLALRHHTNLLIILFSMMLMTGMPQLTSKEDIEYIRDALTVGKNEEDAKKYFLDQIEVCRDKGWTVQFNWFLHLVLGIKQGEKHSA
# Phosphatidylinositol 4-kinase beta, sequence (Q9UBF8 whole entry): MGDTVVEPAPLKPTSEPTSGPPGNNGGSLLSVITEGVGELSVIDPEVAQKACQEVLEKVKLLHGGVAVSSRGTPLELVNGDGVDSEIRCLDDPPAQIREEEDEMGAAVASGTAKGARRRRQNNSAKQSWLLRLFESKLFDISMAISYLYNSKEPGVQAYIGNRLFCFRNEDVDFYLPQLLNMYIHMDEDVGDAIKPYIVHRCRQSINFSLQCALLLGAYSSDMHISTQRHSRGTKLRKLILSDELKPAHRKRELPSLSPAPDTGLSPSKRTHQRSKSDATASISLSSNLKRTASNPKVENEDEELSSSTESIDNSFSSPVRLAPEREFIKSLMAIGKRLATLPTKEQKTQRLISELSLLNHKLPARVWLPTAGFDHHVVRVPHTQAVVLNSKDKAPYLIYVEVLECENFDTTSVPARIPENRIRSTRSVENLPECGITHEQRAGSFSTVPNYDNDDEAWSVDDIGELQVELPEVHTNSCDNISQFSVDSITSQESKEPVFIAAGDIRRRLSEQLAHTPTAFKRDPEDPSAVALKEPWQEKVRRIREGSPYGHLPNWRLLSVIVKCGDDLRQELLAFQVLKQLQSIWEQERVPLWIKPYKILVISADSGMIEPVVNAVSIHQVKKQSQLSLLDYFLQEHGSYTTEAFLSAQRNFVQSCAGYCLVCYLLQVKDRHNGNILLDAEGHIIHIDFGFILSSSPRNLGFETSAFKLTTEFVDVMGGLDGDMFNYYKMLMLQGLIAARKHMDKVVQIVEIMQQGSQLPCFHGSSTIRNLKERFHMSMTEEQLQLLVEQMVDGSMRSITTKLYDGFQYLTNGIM
# T4 sequence (P42338 whole entry, canonical isoform): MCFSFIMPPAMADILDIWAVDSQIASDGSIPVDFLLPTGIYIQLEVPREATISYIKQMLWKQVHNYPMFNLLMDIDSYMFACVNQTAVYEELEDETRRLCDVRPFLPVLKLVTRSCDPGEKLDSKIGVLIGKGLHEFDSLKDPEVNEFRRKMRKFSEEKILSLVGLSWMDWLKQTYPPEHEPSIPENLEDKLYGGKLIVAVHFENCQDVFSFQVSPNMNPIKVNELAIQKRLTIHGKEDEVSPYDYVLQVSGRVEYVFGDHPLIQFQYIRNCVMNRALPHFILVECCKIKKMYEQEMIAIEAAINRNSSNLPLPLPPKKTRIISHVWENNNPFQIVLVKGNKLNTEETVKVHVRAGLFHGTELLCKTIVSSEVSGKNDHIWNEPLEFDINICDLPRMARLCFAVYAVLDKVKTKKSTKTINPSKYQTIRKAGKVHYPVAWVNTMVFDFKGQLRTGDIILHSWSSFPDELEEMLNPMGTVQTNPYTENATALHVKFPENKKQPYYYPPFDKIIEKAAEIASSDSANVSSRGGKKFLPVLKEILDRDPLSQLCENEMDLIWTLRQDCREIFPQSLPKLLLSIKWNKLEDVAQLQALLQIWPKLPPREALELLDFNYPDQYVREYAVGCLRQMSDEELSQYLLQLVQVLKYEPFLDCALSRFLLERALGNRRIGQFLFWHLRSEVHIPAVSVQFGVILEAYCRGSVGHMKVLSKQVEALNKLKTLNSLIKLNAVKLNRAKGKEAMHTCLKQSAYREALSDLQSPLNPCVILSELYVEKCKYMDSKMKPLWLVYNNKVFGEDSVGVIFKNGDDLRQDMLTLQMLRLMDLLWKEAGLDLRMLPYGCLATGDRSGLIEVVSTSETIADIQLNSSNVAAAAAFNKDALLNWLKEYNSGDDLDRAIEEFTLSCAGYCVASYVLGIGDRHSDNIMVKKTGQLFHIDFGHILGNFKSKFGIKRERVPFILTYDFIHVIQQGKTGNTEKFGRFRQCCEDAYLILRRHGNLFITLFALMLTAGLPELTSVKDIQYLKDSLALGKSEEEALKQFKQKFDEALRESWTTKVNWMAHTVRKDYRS
# Phosphatidylinositol 3-kinase catalytic subunit type 3, sequence (Q8NEB9 whole entry): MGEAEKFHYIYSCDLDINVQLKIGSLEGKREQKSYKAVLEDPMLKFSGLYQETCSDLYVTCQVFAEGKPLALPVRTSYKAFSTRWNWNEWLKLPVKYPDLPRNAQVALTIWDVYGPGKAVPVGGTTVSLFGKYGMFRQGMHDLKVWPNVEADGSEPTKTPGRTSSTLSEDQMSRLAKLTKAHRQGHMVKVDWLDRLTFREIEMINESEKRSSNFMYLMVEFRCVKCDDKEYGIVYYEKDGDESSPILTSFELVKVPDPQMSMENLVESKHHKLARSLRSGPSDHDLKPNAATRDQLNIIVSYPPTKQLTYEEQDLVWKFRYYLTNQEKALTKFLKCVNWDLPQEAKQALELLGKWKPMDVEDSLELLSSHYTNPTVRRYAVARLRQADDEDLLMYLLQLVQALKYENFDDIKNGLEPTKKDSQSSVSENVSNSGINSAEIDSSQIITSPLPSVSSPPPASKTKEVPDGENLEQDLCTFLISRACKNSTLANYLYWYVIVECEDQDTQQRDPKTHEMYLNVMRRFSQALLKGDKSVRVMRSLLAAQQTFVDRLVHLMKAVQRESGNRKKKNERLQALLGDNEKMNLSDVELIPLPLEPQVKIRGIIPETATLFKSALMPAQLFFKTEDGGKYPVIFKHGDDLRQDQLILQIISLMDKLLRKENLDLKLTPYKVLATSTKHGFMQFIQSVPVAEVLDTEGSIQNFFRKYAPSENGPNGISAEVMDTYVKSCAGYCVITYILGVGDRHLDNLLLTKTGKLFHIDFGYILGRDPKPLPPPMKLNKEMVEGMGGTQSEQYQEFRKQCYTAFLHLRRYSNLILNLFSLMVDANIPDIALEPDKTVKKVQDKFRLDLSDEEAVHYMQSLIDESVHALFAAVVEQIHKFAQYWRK
# T1 sequence (P42336 whole entry, canonical isoform): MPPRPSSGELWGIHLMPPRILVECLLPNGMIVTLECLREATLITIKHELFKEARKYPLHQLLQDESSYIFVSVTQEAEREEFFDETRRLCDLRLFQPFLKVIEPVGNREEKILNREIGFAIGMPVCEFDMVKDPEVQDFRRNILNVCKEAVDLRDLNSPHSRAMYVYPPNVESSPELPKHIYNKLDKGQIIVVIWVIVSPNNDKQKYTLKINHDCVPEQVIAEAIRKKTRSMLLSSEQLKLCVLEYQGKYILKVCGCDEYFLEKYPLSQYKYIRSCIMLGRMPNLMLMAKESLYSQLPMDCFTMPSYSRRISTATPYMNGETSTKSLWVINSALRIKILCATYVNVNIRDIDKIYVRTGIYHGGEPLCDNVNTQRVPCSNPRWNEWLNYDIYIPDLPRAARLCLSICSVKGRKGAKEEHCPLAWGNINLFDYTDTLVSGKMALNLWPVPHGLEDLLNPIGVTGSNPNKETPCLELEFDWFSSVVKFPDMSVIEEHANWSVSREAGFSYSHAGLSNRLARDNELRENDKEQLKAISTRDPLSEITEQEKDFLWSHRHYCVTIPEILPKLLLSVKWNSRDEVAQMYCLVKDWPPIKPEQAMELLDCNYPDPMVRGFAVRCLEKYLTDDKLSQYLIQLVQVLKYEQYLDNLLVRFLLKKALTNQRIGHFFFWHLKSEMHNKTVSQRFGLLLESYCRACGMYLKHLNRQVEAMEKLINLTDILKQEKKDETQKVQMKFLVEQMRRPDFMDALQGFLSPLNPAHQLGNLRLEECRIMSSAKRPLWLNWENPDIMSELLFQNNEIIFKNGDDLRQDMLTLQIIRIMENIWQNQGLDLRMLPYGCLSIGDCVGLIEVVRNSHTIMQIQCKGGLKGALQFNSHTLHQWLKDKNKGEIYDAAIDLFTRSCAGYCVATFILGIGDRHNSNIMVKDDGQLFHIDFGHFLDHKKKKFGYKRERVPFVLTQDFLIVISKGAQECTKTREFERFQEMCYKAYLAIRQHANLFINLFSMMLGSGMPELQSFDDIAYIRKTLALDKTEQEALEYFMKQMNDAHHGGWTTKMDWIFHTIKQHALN
structure (smiles),measurement,setting,value
CC(=O)Nc1nc(C)c(-c2ccc(S(C)(=O)=O)c(C(F)(F)F)c2)s1,Ki,[1],28 nM
same,Ki,[2],74 nM
same,Ki,[3],61 nM
same,Ki,[4],870 nM
same,IC50,[5],290 nM
NC(=O)[C@@H]1CCCN1C(=O)Nc1nc2ccc(-c3cnc(N)c(C(F)(F)F)c3)cc2s1,IC50,[6],40 nM
same,IC50,[7],2940 nM
same,IC50,[8],540 nM
same,IC50,[9],1190 nM
CC(=O)Nc1nc(C)c(-c2ccc(-n3cccn3)cc2)s1,Ki,[1],30 nM
same,Ki,[2],19 nM
same,Ki,[3],110 nM
same,Ki,[4],410 nM
same,IC50,[5],320 nM
CCn1nnc(CCNC(=O)Nc2nc(C)c(-c3ccc(S(C)(=O)=O)c(F)c3)s2)n1,AUC,[10],4.31 µM·h
same,IC50,[11],1330 nM
same,IC50,[12],590 nM
same,CL/F,[13],4 mL/min/kg
same,IC50,[14],> 9100 nM
same,Ki,[1],1400 nM
same,Ki,[2],470 nM
same,bioavailability,[15],24%
same,IC50,[16],> 10000 nM
same,half-life,[17],108 min
same,IC50,[18],118 nM
same,IC50,[19],117 nM
same,IC50,[20],1610 nM
same,Ki,[4],320 nM
same,Vdss,[21],0.6 L/kg
same,IC50,[22],> 9100 nM
same,IC50,[5],270 nM
same,Tmax,[23],60 min
same,Cmax,[24],490 nM
CC(=O)Nc1nc(C)c(-c2ccc(S(C)(=O)=O)c(Br)c2)s1,Ki,[1],11 nM
same,Ki,[2],61 nM
same,Ki,[3],32 nM
same,Ki,[4],550 nM
same,IC50,[5],340 nM
CC(=O)Nc1nc(C)c(-c2ccc(S(C)(=O)=O)cc2)s1,Ki,[1],200 nM
same,Ki,[2],190 nM
same,Ki,[3],230 nM
same,Ki,[4],1360 nM
same,IC50,[5],1930 nM
CC(=O)Nc1nc(C)c(-c2ccc(S(N)(=O)=O)cc2)s1,Ki,[1],110 nM
same,Ki,[2],210 nM
same,Ki,[3],110 nM
same,Ki,[4],1430 nM
same,IC50,[5],2600 nM
Cc1nc(NC(=O)N2CCC[C@H]2C(N)=O)sc1-c1ccc(-n2cccn2)cc1,IC50,[11],920 nM
same,IC50,[12],370 nM
same,IC50,[14],> 9100 nM
same,Ki,[1],5 nM
same,Ki,[2],220 nM
same,Vdss,[25],1.29 L/kg
same,Ki,[3],530 nM
same,IC50,[16],> 10000 nM
same,half-life,[26],42 min
same,CL/F,[27],21 mL/min/kg
same,Tmax,[28],240 min
same,Cmax,[29],280 nM
same,IC50,[20],320 nM
same,Ki,[4],2000 nM
same,AUC,[30],4.1 µM·h
same,IC50,[22],> 9100 nM
same,bioavailability,[31],21%
same,IC50,[5],930 nM
Cc1nc(NC(=O)N2CCC[C@H]2C(N)=O)sc1-c1ccc(S(C)(=O)=O)c(C(F)(F)F)c1,Ki,[1],20 nM
same,Ki,[2],1670 nM
same,Ki,[3],1140 nM
same,Ki,[4],> 10000 nM
Cc1nc(NC(=O)NCCC(=O)OC(C)(C)C)sc1-c1ccc(S(C)(=O)=O)c(F)c1,Ki,[1],2130 nM
same,Ki,[2],380 nM
same,Ki,[3],20 nM
same,Ki,[4],90 nM
Cc1cc(NC(=O)CCNC(=O)Nc2nc(C)c(-c3ccc(S(C)(=O)=O)c(F)c3)s2)no1,Ki,[1],110 nM
same,Ki,[2],3 nM
same,Ki,[3],120 nM
same,Ki,[4],860 nM
Cc1cc(NC(=O)CCNC(=O)Nc2nc(C)c(-c3ccc(-n4cccn4)cc3)s2)no1,IC50,[11],40 nM
same,IC50,[12],14 nM
same,IC50,[14],> 9100 nM
same,Ki,[1],150 nM
same,solubility,[32],< 2 µg/mL
same,Ki,[2],4 nM
same,Vdss,[25],0.4 L/kg
same,Ki,[3],1020 nM
same,IC50,[16],> 10000 nM
same,half-life,[26],36 min
same,Tmax,[28],480 min
same,Cmax,[29],50 nM
same,IC50,[20],5 nM
same,Ki,[4],340 nM
same,AUC,[33],0.69 µM·h
same,IC50,[22],> 9100 nM
same,bioavailability,[31],3%
same,IC50,[5],720 nM
CC(=O)Nc1nc(C)c(-c2ccc(S(C)(=O)=O)c(Cl)c2)s1,Ki,[1],35 nM
same,Ki,[2],79 nM
same,Ki,[3],57 nM
same,Ki,[4],1300 nM
same,IC50,[5],1930 nM
CC(=O)Nc1nc(C)c(-c2ccc(S(C)(=O)=O)c(C#N)c2)s1,Ki,[1],45 nM
same,Ki,[2],79 nM
same,Ki,[3],62 nM
same,Ki,[4],760 nM
same,IC50,[5],300 nM
CC(=O)Nc1nc(C)c(-c2ccc(C(C)=O)cc2)s1,Ki,[1],190 nM
same,Ki,[2],260 nM
same,Ki,[3],260 nM
same,Ki,[4],1940 nM
same,IC50,[5],1760 nM
CC(=O)c1ccc(-c2sc(NC(=O)NCCC(=O)NC(C)(C)C)nc2C)cc1,IC50,[11],240 nM
same,IC50,[12],760 nM
same,IC50,[14],> 9100 nM
same,Ki,[1],1890 nM
same,Ki,[2],740 nM
same,Vdss,[25],1.4 L/kg
same,IC50,[16],> 10000 nM
same,half-life,[26],48 min
same,CL/F,[27],23 mL/min/kg
same,Tmax,[28],30 min
same,Cmax,[29],1720 nM
same,IC50,[20],1160 nM
same,Ki,[4],250 nM
same,AUC,[30],10.8 µM·h
same,IC50,[22],> 9100 nM
same,bioavailability,[31],57%
same,IC50,[5],220 nM
CC(=O)Nc1nc(C)c(-c2ccc(S(C)(=O)=O)c(F)c2)s1,IC50,[5],220 nM
Cc1nc(NC(=O)N2CCC[C@H]2C(N)=O)sc1-c1ccc(S(C)(=O)=O)cc1,Ki,[1],187 nM
same,Ki,[2],3620 nM
same,Ki,[3],5810 nM
same,Ki,[4],> 10000 nM
